# According to publication PMC10299588, “Bromotyrosine-Derived Metabolites from a Marine Sponge Inhibit Pseudomonas aeruginosa Biofilms” (International Journal of Molecular Sciences, 2023):
# “Also recorded” adds a separate entry of the source.
# Tests used:
# Assay type in all cases: cell-based, Pseudomonas aeruginosa
# [1] = system: planktonic P. aeruginosa PAO1; assay: Minimum inhibitory concentration (MIC) determination; conditions: Pseudomonas aeruginosa; planktonic (free-living) PAO1, LB medium, 18 h, 37 °C
# Method: The minimum inhibitory concentration (MIC) of compounds and antibiotics were performed as previously described, with minor modification. […] Three antibiotics, including tobramycin, ciprofloxacin, and meropenem, were dissolved in water and filter sterilized. Ten microliters of two-fold serially diluted antibiotics were transferred to a 96-well Costar plate (Corning Inc., Corning, MA, USA) followed by the addition of 90 µL of diluted cultures. After an 18-h incubation at 37 °C in the static condition, optical density OD600 was monitored using a Synergy 2 microplate reader (BioTek, Winooski, VT, USA). […] The MIC was determined as the lowest concentrations of antibiotics that inhibit complete bacterial growth compared to growth control.
# [2] = system: PAO1ΔpelF biofilms
# Method: (§1) Biofilms of wild-type PAO1 and isogenic biofilm matrix component mutants were treated with ianthelliformisamines or ciprofloxacin alone and the combinations. Their biofilms were simultaneously stained with SYTO9 (green) and propidium iodide (red). Cells with intact membranes were stained green, while cells with compromised membranes were stained red.
# (§2) For biofilm bacteria imaging, bacteria were cultured, treated with test compounds, and washed, as previously mentioned in the biofilm inhibition assay. The biofilm bacteria were stained using a LIVE/DEAD BacLight bacterial viability kit (Molecular Probes, Inc., Eugene, OR, USA), which consists of SYTO9 (green; staining cells with intact membrane) and propidium iodide (red; staining cells with compromised membrane). Images were captured using a high-content imaging system Operetta CLS (Perkin Elmer, Waltham, MA, USA) with a 60× water-immersion objective.
# [3] = system: PAO1ΔpslA (Psl deletion mutant); assay: Biofilm inhibition assay (OD600 growth and resazurin biofilm viability)
# Method: (§3) Figure 2 Biofilm assays to identify compounds that prevent biofilm formation. Biofilm inhibition assay. P. aeruginosa cultures were seeded into 384-well plates after dispensing compounds and antibiotics. The plates were incubated for 24 h at 37 °C followed by recording bacterial growth (OD600) and measuring the viability of biofilm bacteria using resazurin.
# (§4) The overnight cultures at 37 °C in LB medium were washed once with sterile saline 0.9% (w/v) and adjusted to an OD600 of 0.05, and 1% inoculum was transferred into a fresh LB medium. Following incubation at 37 °C, 200 rpm for 6–6.5 h to reach the mid-log phase, the cells were washed once with sterile saline 0.9% and diluted to an OD600 of 0.01. Then, 45 µL aliquots were dispensed into 384-well plates (Greiner Bio-One, Kremsmünster, Austria, catalog no. 781091). In biofilm inhibition assays, test compounds (5 µL) were loaded prior to the addition of bacteria. The plates were incubated for 24 h at 37 °C in static conditions. The effects of compounds on bacterial growth and viability of biofilm bacteria were determined by the OD600 and resazurin metabolic assay, respectively. The final concentrations of DMSO in the assays were 1–2%. The negative controls or untreated cultures consisted of inoculum and different concentrations of DMSO. Antibiotic ciprofloxacin (0.25 µg/mL and 25 µg/mL) was used as positive controls. The initial OD600 and final OD600 were read before incubation at 37 °C and after 24 h incubation, respectively, followed by assessment of biofilm viability by resazurin metabolic assay. The experiments were carried out with three technical replicates and repeated at least twice. The growth inhibition was calculated as a function of the percentage of the total bacterial inhibition using Equation (1), where AB is the OD600 of LB medium, and AT0 and ATf are the OD600 recorded at inoculating time and at the end of the assay. (1) % Inhibition=100 × [ 1 − [OD600 (Asample Tf− Asample T0)−(AB Tf − AB T0)/OD600 (Anegative control Tf− Anegative control T0)−(AB Tf − AB T0)]]
# (§5) Resazurin sodium salt (Sigma-Aldrich, St. Louis, MI, USA) was dissolved in Milli-Q water at 0.2% (w/v) and filter sterilized. The solution was stored at −20 °C in the dark. The assay was performed as previously described with modification. The cultures were withdrawn, and the plates were washed three times with sterile water using the plate washer (BioTek). To remove the remaining water in the wells, the plates were tapped with autoclaved paper towels. An amount of 50 µL of diluted RSZ solution in LB medium was added into each well, followed by incubation at 37 °C for 5–6 h. A microplate reader (BioTek Synergy 2) was used to measure the fluorescence intensity (excitation 530 nm, emission 590 nm). Data collected were determined as a function of fluorescence percentage using Equation (2), where FB is the fluorescence of the diluted RSZ solution in LB medium in the absence of P. aeruginosa cells. (2) % Inhibition=[(Fnegative control −FB )−(Fsample −FB )/(Fnegative control − FB )]×100
# [4] = system: PAO1ΔpelF (Pel deletion mutant); assay: as above; conditions: ciprofloxacin alone, sub-MIC
# Method: as §3, §4, §5
# [5] = system: DNA damage reporter strain MDM-623; assay: Cellular bioluminescent assay (DNA damage reporter); conditions: 8 h; ciprofloxacin at 0.0625, 0.083, 0.25 and 25 µg/mL
# Text: Ciprofloxacin, a fluroquinolone antibiotic, has been extensively utilized to treat various bacterial infections. It targets bacterial DNA topoisomerase and DNA gyrase, which produce breakage of double-stranded DNA, ultimately leading to cell death. […] In the effort of identifying the mechanisms of action of test compounds, we employed a DNA damage reporter strain MDM-623, which was constructed based on the promoter-luciferase reporter gene. The increased luminescence readouts are indicative of gyrase inhibition-induced promoter upregulation through the recA pathway. […] Nevertheless, there was no difference in the response of MDM-623 upon exposure to test compounds and the solvent (Figure 5E). The above results may imply that test compounds are unlikely to be DNA gyrase inhibitors and that their mechanism of action is unrelated to that of ciprofloxacin.
# The reporter strain MDM-623 was kindly provided by Dr. Timothy Opperman (Microbiotix, Inc., Worcester, MA, USA). The strain harbors a promoter region from PA0614 fused to Photorhabdus luminescens luciferase luxCDABE operon, which was constructed to respond to DNA damage. All experiments were carried out as previously described with minor modification. […] Luminescence was monitored using a BioTek Synergy H1 Hybrid microplate reader for 8 h at 30-min intervals. […]
# [6] = system: PDO300 biofilms; assay: Fluorescence microscopy of biofilms (SYTO9/propidium iodide)
# Method: as §1, §2
# [7] = system: PAO1ΔpslA biofilms; assay: as above; conditions: alone
# Method: as §1, §2
# [8] = system: PAO1 biofilms; assay: as above
# Method: as §1, §2
# [9] = system: PDO300Δalg8 biofilms; assay: as above
# Method: as §1, §2
# [10] = system: outer membrane of wild-type PAO1 cells; assay: NPN uptake assay (outer membrane permeability); conditions: PAO1 pre-treated with 100 µM CCCP, 30 min; polymyxin B at 6.4 and 10 µg/mL
# Method: The effect of ianthelliformisamines on the permeability of the outer membrane was determined using an NPN uptake assay. NPN (1-N-phenylnapthylamine), a hydrophobic fluorescent probe, is excluded from the intact outer membranes of Gram-negative bacteria such as P. aeruginosa. It intensely fluoresces once it gains access to the phospholipid layer of membrane-compromised cells (Figure 5A). The experiments were conducted with different concentrations of ianthelliformisamines and sub-inhibitory doses of ciprofloxacin. […] The level of fluorescence intensity in bacteria challenged with test compounds, even at highest testing concentrations, resembled that in cells treated with DMSO.
# The permeability of the outer membrane upon exposure to test compounds was assessed using a 1-N-phenylnapthylamine (NPN) uptake assay. An overnight culture of PAO1 was grown to an OD600 of 0.5, centrifuged, washed with HEPES buffer (5 mM, pH 7.2), and re-suspended in HEPES buffer containing 100 µM CCCP. […] Ninety microliters of the cell suspension were added to the flat-bottomed, black 96-well plate containing 10 µL of test compounds, and the NPN fluorescence was immediately monitored using a BioTek Synergy H1 Hybrid microplate reader at an excitation of 350 nm and an emission of 420 nm every min for 30 min. […]
compound,measurement,setting,value
"NC[C@H]1O[C@H](O[C@H]2[C@H](O)[C@@H](O[C@H]3O[C@H](CO)[C@@H](O)[C@H](N)[C@H]3O)[C@H](N)C[C@@H]2N)[C@H](N)C[C@@H]1O [tobramycin, reference compound]",MIC,[1],2 µg/mL
"C[C@@H](O)[C@H]1C(=O)N2C(C(=O)O)=C(S[C@@H]3CN[C@H](C(=O)N(C)C)C3)[C@H](C)[C@H]12 [meropenem, reference compound]",MIC,[1],0.375 µg/mL
"O=C(O)c1cn(C2CC2)c2cc(N3CCNCC3)c(F)cc2c1=O [ciprofloxacin, reference compound]",cell phenotype,[2],"long, filamentous phenotypes as well as small, round spheroplasts"
same,bacterial growth inhibition,[3]; alone at 1/3 MIC,moderately inhibited
same,prevention of biofilm formation,[3]; alone at 1/3 MIC,completely prevented
same,reduction of bacterial growth,[3]; alone at 1/3 and 1/4 MIC,> 40%
same,suppression of biofilm formation,[3]; alone at 1/3 and 1/4 MIC,~ 100%
same,effect on survival of suspended cells,"[3]; sub-lethal doses (1/3, 1/4 MIC) alone",~ 50%
same,biofilm response (reduction),[4],~ 60%
same,MIC,[1],0.25 µg/mL
same,luminescence response of DNA damage reporter (gyrase inhibition),[5],steadily enhanced
same,cell phenotype,[6],"long, filamentous phenotypes as well as small, round spheroplasts"
same,biofilm after treatment,[7],unable to form biofilms; also recorded: eradicated
same,cell phenotype,[8],"long, filamentous phenotypes as well as small, round spheroplasts"
same,cell phenotype,[9],"long, filamentous phenotypes as well as small, round spheroplasts"
polymyxin B,outer membrane permeabilization (NPN fluorescence),[10],prominent fluorescence
